Assay results taken from article PMC7397269, “Synthesis and Evaluation of New Coumarin Derivatives as Antioxidant, Antimicrobial, and Anti-Inflammatory Agents” (Molecules, 2020).
Converted amounts (≈) assume the structure as drawn. “And” between values parts separate entries of the source, which are not always exact repeats. Identical values can stand only once. Like-named read-outs stand apart in the source and are kept apart here.

Columns and labels:
COX-2 = biological target: T1, COX-2 (Homo sapiens, UniProt P35354); test: COX-2 inhibition, Cayman assay kit; format: biochemical; settings: for IC50: mean of two determinations; for SI, selectivity index (COX-1/COX-2): ratio of COX-1/COX-2 IC50
T1 construct: purchased Cayman Chemical 701080
T1 sequence (P35354 18-604): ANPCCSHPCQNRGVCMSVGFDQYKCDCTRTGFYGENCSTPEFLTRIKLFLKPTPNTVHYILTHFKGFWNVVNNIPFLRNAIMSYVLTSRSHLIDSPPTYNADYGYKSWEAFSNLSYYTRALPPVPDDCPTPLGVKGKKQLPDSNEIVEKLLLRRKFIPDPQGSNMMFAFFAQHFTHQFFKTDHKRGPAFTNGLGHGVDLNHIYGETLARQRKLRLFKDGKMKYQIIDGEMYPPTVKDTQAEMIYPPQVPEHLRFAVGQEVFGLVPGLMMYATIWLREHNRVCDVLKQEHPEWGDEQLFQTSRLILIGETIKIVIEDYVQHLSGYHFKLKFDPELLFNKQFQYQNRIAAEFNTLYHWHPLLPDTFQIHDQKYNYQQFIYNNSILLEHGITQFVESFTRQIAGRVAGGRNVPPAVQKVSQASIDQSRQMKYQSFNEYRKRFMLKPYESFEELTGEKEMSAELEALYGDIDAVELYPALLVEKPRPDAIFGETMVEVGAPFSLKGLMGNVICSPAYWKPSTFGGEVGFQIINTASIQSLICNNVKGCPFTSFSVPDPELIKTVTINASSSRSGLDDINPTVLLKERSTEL

tested microorganisms = test: MIC, summary over the tested microorganisms; format: cell-based; settings: two-fold serial dilution
Source text: The new molecules were individually tested for their antimicrobial activity in vitro against standard bacteria strains from the American Type Culture Collection (ATCC), namely, Staphylococcus aureus ATCC 29213, Bacillus subtilis ATCC 6633, Bacillus megaterium ATCC 9885 (Gram-positive), Escherichia coli ATCC 2592, and Pseudomonas aeruginosa ATCC 27,953 (Gram-negative). The compounds were also microbiologically tested against locally isolated Saccharomyces cerevisiae (yeast) and the standard Agricultural Research Service Culture Collection (NRRL) strain of the yeast-like pathogenic fungus Candida albicans NRRL Y-477. Primary screening was conducted using the agar well diffusion method using nutrient agar (NA) medium and Sabourand dextrose agar (SDA) medium for the tested pathological bacteria and yeast, respectively. […].
The bacteriostatic activity of the active compounds (having IZ > 16 mm) was then evaluated using the two-fold serial dilution technique. Two-fold serial dilutions of the tested compounds solutions were prepared using the proper nutrient broth to reach final concentrations of 1000, 500, 250, and 125 μg/mL. The tubes were then inoculated with the test microorganisms grown in their suitable broth at 37 °C for 24 h (1 × 10^8 CFU/mL for bacteria and 1 × 10^6 CFU/mL of yeast), 0.1 mL of the above inoculum was administered per 5 mL, and the tubes were incubated at 37 °C for 24 h. The lowest concentration showing no growth was taken as the MIC.

[1] = system: Saccharomyces cerevisiae local isolate; test: MIC, two-fold serial dilution, S. cerevisiae; format: cell-based; settings: read-out: Minimum inhibitory concentration, SC
Method in brief: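 Compounds with agar-well inhibition zone >16 mm went on to two-fold broth dilution at final 1000, 500, 250 and 125 μg/mL. Inocula were 1×10^8 CFU/mL for bacteria and 1×10^6 CFU/mL for yeast (0.1 mL per 5 mL), incubated 37 °C for 24 h. MIC taken as the lowest concentration with no growth.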

[2] = DPPH antioxidant assay (radical scavenging); format: biochemical; settings: mean ± SD (n = 3)
Method in brief: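 Compounds, starting at 200 μg/mL, were mixed with 0.2 mM methanolic DPPH and incubated 30 min in the dark at 25 °C; absorbance was read at 515 nm. % inhibition is background-corrected against DPPH-only control, with IC50 from curve fit. Runs were triplicate (mean ± SD), with ascorbic acid as positive control.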

[3] = system: Candida albicans NRRL Y-477; test: Agar well diffusion, C. albicans; format: cell-based; settings: NRRLY477, 100 μL of 10 mg/mL in DMSO, read-out: diameter of inhibition zone, CA
Method in brief: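 Wells (10 mm) in nutrient agar (bacteria, 1 × 10^8 CFU/mL) or Sabouraud dextrose agar (yeast, 1 × 10^6 CFU/mL) loaded with 100 μL of 10 mg/mL compound in DMSO. Plates incubated 24 h at 37 °C. Inhibition zone diameter (mm), mean of triplicates.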

[4] = system: formaldehyde-induced rat paw oedema; test: Formaldehyde-induced rat paw oedema (prophylactic); format: in vivo; settings: 2.5 mg/kg orally, 1 h after inducing inflammation
[5] = read-out: MIC against one or more tested microorganisms
[6] = two-fold serial dilution, S. cerevisiae
[7] = read-out: MIC against Gram-positive bacteria

MIC [1, 6] | SMILES | IC50 (COX-2) | SI, selectivity index (COX-1/COX-2) (COX-2) | MIC (tested microorganisms; [5]) | IC50 [2] | zone of inhibition at 10000 µg/mL [3] | MIC [1] | % inhibition of paw oedema [4] | MIC (tested microorganisms; [7]) | MIC (tested microorganisms; read-out: MIC against all microorganisms)
 | COc1cc(/C=N/C2=C(C#N)C(c3ccc([N+](=O)[O-])cc3)c3c(c4cc(C)ccc4oc3=O)O2)cc(OC)c1OC (racemic) [5c, (±)-9-methyl-4-(4-nitrophenyl)-5-oxo-2-((3,4,5-trimethoxybenzylidene)amino)-4H,5H-pyrano[3,2-c]chromene-3-carbonitrile] | 13.3 µM | 1.39 |  | — ((—): inactive (IC50 > 200 μg/mL)) | 24 mm | 500 µg/mL (≈ 903 µM) |  |  | 
250 µg/mL (≈ 507 µM) | Cc1ccc2oc(=O)c(S(=O)(=O)Nc3ccc(S(=O)(=O)Nc4nccs4)cc3)c(O)c2c1 [7f, 4-Hydroxy-6-methyl-2-oxo-N-(4-(N-(thiazol-2-yl)sulfamoyl)phenyl)-2H-chromene-3-sulfonamide] | 10.1 µM | 4.06 |  | 83.52 ± 1.849 µg/mL (≈ 169 µM) | 24 mm |  | 17.18% |  | 
1000 µg/mL (≈ 3020 µM) | Cc1ccc2oc(=O)c(S(=O)(=O)Nc3ccccc3)c(O)c2c1 [8b, 4-Hydroxy-6-methyl-2-oxo-N-phenyl-2H-chromene-3-sulfonamide] | 13.4 µM | 1.94 |  | 19.25 ± 4.171 µg/mL (≈ 58.1 µM) | 20 mm |  |  |  | 
1000 µg/mL (≈ 1950 µM) | O=c1oc2ccc(Cl)cc2c(O)c1S(=O)(=O)Nc1ccc(S(=O)(=O)Nc2nccs2)cc1 [7e, 6-Chloro-4-hydroxy-2-oxo-N-(4-(N-(thiazol-2-yl)sulfamoyl)phenyl)-2H-chromene-3-sulfonamide] | 16.1 µM | 1.84 |  | 71.67 ± 3.231 µg/mL (≈ 139 µM) | 23 mm |  |  |  | 
 | Cc1ccc2oc(=O)c3c(c2c1)OC(/N=C/c1ccc(Cl)cc1Cl)=C(C#N)C3c1ccco1 (racemic) [5f, (±)-2-((2,4-dichlorobenzylidene)amino)-4-(furan-2-yl)-9-methyl-5-oxo-4H,5H-pyrano[3,2-c]chromene-3-carbonitrile] | 3.1 µM | 29.1 |  | — ((—): inactive (IC50 > 200 μg/mL)) | 22 mm | 500 µg/mL (≈ 1050 µM) |  | 500 to 1000 µg/mL (≈ 1050 to 2100 µM) | 
 | Cc1ccc2oc(=O)c3c(c2c1)OC(N)=C(C#N)C3c1ccc([N+](=O)[O-])cc1 (racemic) [2a, (±)-2-Amino-9-methyl-4-(4-nitrophenyl)-5-oxo-4H,5H-pyrano[3,2-c]chromene-3-carbonitrile] | 2.74 µM | 42.58 |  | — ((—): inactive (IC50 > 200 μg/mL)) | 22 mm | 500 µg/mL (≈ 1330 µM) |  | 500 to 1000 µg/mL (≈ 1330 to 2660 µM) | 
250 µg/mL (≈ 580 µM) | NS(=O)(=O)c1ccc(NS(=O)(=O)c2c(O)c3cc(Cl)ccc3oc2=O)cc1 [7a, 6-Chloro-4-hydroxy-2-oxo-N-(4-sulfamoylphenyl)-2H-chromene-3-sulfonamide] | 17.4 µM | 13.75 |  | 93.12 ± 0.727 µg/mL (≈ 216 µM) | 26 mm |  |  |  | 
250 µg/mL (≈ 711 µM) | O=c1oc2ccc(Cl)cc2c(O)c1S(=O)(=O)Nc1ccccc1 [8a, 6-Chloro-4-hydroxy-2-oxo-N-phenyl-2H-chromene-3-sulfonamide] | 8.5 µM | 2.94 |  | 14.51 ± 1.827 µg/mL (≈ 41.2 µM) | 29 mm |  |  |  | 
 | Cc1ccc2oc(=O)c3c(c2c1)OC(N)=C(C#N)C3c1ccco1 (racemic) [2b, (±)-2-Amino-4-(furan-2-yl)-9-methyl-5-oxo-4H,5H-pyrano[3,2-c]chromene-3-carbonitrile] | 4.25 µM | 47.3 and 47.33 |  | — ((—): inactive (IC50 > 200 μg/mL)) | 23 mm | 500 µg/mL (≈ 1560 µM) | 6.57% | 500 to 1000 µg/mL (≈ 1560 to 3120 µM) | 

SMILES | MIC [1, 6] | IC50 (COX-2) | SI, selectivity index (COX-1/COX-2) (COX-2) | MIC (tested microorganisms; [5]) | IC50 [2] | zone of inhibition at 10000 µg/mL [3] | MIC [1] | % inhibition of paw oedema [4] | MIC (tested microorganisms; [7]) | MIC (tested microorganisms; read-out: MIC against all microorganisms)
O=c1oc2ccc(Cl)cc2c(O)c1S(=O)(=O)Nc1ccc(S(=O)(=O)Nc2ncccn2)cc1 [7c, 6-Chloro-4-hydroxy-2-oxo-N-(4-(N-(pyrimidin-2-yl)sulfamoyl)phenyl)-2H-chromene-3-sulfonamide] | 125 µg/mL (≈ 246 µM) | 19.9 µM | 3.12 | 125 µg/mL (≈ 246 µM) | 120.12 ± 4.629 µg/mL (≈ 236 µM) | 27 mm |  |  |  | 
Cc1ccc2oc(=O)c(S(=O)(=O)Nc3ccc(O)cc3)c(O)c2c1 [8d, 4-Hydroxy-N-(4-hydroxyphenyl)-6-methyl-2-oxo-2H-chromene-3-sulfonamide] | 125 µg/mL (≈ 360 µM) | 1.86 µM | 10.5 and 10.45 | 125 µg/mL (≈ 360 µM) | 4.30 ± 0.531 µg/mL (≈ 12.4 µM) | 30 mm |  |  |  | 
Cc1ccc2oc(=O)c(S(=O)(=O)Nc3ccc(S(=O)(=O)Nc4ncccn4)cc3)c(O)c2c1 [7d, 4-Hydroxy-6-methyl-2-oxo-N-(4-(N-(pyrimidin-2-yl)sulfamoyl)phenyl)-2H-chromene-3-sulfonamide] | 125 µg/mL (≈ 256 µM) | 3.35 µM | 63.96 | 125 µg/mL (≈ 256 µM) | 112.19 ± 4.391 µg/mL (≈ 230 µM) | 30 mm |  |  |  | 125 µg/mL (≈ 256 µM)
O=c1oc2ccc(Cl)cc2c(O)c1S(=O)(=O)Nc1ccc(O)cc1 [8c, 6-Chloro-4-hydroxy-N-(4-hydroxyphenyl)-2-oxo-2H-chromene-3-sulfonamide] | 125 µg/mL (≈ 340 µM) | 11.9 µM | 1.3 and 1.29 | 125 µg/mL (≈ 340 µM) | 3.87 ± 0.409 µg/mL (≈ 10.5 µM) | 30 mm |  | 9.45% |  | 
